This is an account of results in patent US10300070B2, “Metabolically-activated drug conjugates to overcome resistance in cancer therapy” (The Brigham and Women's Hospital, Inc., priority 2014, dated 2019).

Common to all, as to type: cell-based
Test [1] deals with CD44. In words: Cell surface CD44 expression by FACS. The note with it: for CD44 expression after exogenous cytokine: MDA-MB-231, within 4 hours. The protocol:
DU145 and DU145-TxR were provided by A. Mizokami^63 and cultured in DMEM containing 10% FBS, resistant line included 100 nM paclitaxel in the culture media. During treatments with chemotherapeutics, cells were grown to semi-confluence and treated with indicated concentrations of chemotherapy in serum-containing medium for indicated time points. When small molecule inhibitors were included in treatments, they were added simultaneously with chemotherapy. […] Scrambled siRNA was used as a control. For chemotherapy treatment experiments: Cancer cells were plated at a density of 0.5-1×10^5 cells/ml and allowed to adhere for 24-48 hr. […] Following washes with PBS, adherent cells were trypsinized and re-plated at a density of 1.5-2×10^5 cells/ml and cultured in serum-containing medium. […] A population of drug naïve parent cells were always cultured alongside DTC and fresh media was added at every interval that experimental population (DTC) received fresh media.
Cells were cultured as indicated, removed from culture dishes with accutase stem-pro dissociation reagent (Invitrogen, Carlsbad Calif.) and fixed with 4% paraformaldehyde in PBS for 30 min at RT, washed twice with PBS and blocked in 10% goat serum (v/v). Whenever necessary, cells were permeabilized with 0.05% saponin in PBS. Cells were incubated with CD44-APC (BD biosciences, San Jose, Calif.) overnight at 4 C and analyzed by FACS (C6 Accuri cyomteters Inc Ann Arbor, Mich.), data analysis using FlowJo software (Tree Star Inc., Ashland Oreg.) and Accuri cFlow plus software to obtain and confirm mean fluorescent intensity (GNU.org).

Test [2] has as its system MDA-MB-231 parent or DTC. Briefly: Glucose uptake (2-NBDG) determined by FACS. The conditions noted are these: for suppression of glucose consumption (2-NBDG uptake): incubation 3 h, DTC compared to drug naïve parent cells; for 2-NBDG uptake after exogenously-added cytokines: MDA-MB-231 parent cells, 24 hours incubation, 50 ng/ml. The protocol:
(§1) MDA-MB-231 (ATCC), MDA-MB-468 and 4T-1 mammary carcinoma cells (ATCC) were cultured in DMEM containing 10% Fetal Bovine Serum (FBS) at 37 C and 5% CO2. DU145 and DU145-TxR were provided by A. Mizokami^63 and cultured in DMEM containing 10% FBS, resistant line included 100 nM paclitaxel in the culture media. During treatments with chemotherapeutics, cells were grown to semi-confluence and treated with indicated concentrations of chemotherapy in serum-containing medium for indicated time points. When small molecule inhibitors were included in treatments, they were added simultaneously with chemotherapy. For siRNA gene knockdown, cells were transfected with silencer-select siRNA plasmids (Ambion, Invitrogen, Grand Island, N.Y.) pan-CD44(1) (s2682) panCD44(2) (s2681), siHIF1A (s6539) using lipofectamine 2000 (Invitrogen, Carlsbad Calif.) following manufacturer protocol and cultured for 72 hours prior to treatment. Scrambled siRNA was used as a control. For chemotherapy treatment experiments: Cancer cells were plated at a density of 0.5-1×10^5 cells/ml and allowed to adhere for 24-48 hr. When cells reached ˜70% confluency they were treated with cytotoxics at indicated concentrations for 24-48 hours and utilized for subsequent assays. For experiments in which a shorter incubation was used (i.e. 15 min-4 hours) fresh media was added 24 hours prior to addition of chemotherapy suspended to stock concentration in PBS. For generation of DTC: Cells were treated for 48 hours with chemotherapy. Following washes with PBS, adherent cells were trypsinized and re-plated at a density of 1.5-2×10^5 cells/ml and cultured in serum-containing medium. After 24 hours incubation, floating cells were removed and remaining cells were washed with 1× PBS and considered as chemotherapy-tolerant cells. A population of drug naïve parent cells were always cultured alongside DTC and fresh media was added at every interval that experimental population (DTC) received fresh media.
In vitro detection of glucose uptake was performed using 2-(N-7-Nitrobenz-2-oxa-1,3-diazol-4-yl)Amino)-2-Deoxyglucose (2-NBDG) (Invitrogen, Carlsbad Calif.), dissolved in DMSO to 50 mM. Cells were pre-treated with kinase inhibitors or vehicle for 3 hours in glucose- and phenol red-free media before addition of 50 μM 2-NBDG and subsequently read by FACS ex/em 488/535 nm. ROS was determined by pre-loading cells with CM-DCFDA (1 μM), washed 2 times with PBS and subsequently treated with H2O2 or vehicle; when kinase inhibitors were included in treatment, cells were first incubated with inhibitor for 3 hours prior to CM-DCFDA loading. Fluorescence was then determined by FACS ex/em 488/535 nm. For the following assays, cells were trypsinized and counted by Nexcelom cell counter (Lawrence, Mass.) prior to being subjected to analysis in order to achieve a quantitative value per cell: Reduced glutathione was determined using a colorimetric glutathione recycling system by DTNB following manufacturer protocol (Biovision, Milpitas Calif.). ATP analysis was performed using the ATP colorimetric analysis kit (Biovision) according to manufacturer protocol. Reductive stress was detected using the Enzo nitroreductase hypoxia kit (Enzo Life Sciences, Ann Arbor Mich.) following manufacturer protocol and visualized by fluorescent microscopy; a set of non-docetaxel-treated control cells loaded with fluorescent probe were compared against docetaxel-treated cells to derive a % redox stress increase which was calculated as fluorescence intensity of nitroreductase probe per cell and expressed as increase from vehicle. Protein synthesis was measured by two means 1. L-azidohomoalanine amino acid analog of methionine containing an azide moiety was added to cultured cells (parent or DTC) for 3 hours which is incorporated into proteins during active protein synthesis. […]
In general terms: Flow cytometry measures light scatter and fluorescence of single cells or particles in a stream.

The test system of test [3] is MDA-MB-231 parent or DTC. Briefly: Cell viability (MTS) and trypan blue exclusion of parent or DTC treated with doxorubicin. The protocol:
as §1
Following drug incubation, cells were washed and suspended in phenol red-free RPMI or DMEM and subsequently treated with MTS reagent using manufacturer protocol (Promega, Madison, Wis.). Trypan blue exclusion was used to validate experiments and evaluate % of dead cells performed by bright field microscopy.

As for `Cc1ccc(S(=O)(=O)/C=C/C#N)cc1` [Bay-11], the “chemotherapy early-induced CD44 expression” value in test [1] (DTX 25 nM, 4 h, Bay-11 10 μM, neutralizing antibodies 2 μg/ml) is “modulated chemotherapy early-induced CD44 expression”.

`CO[C@H]1C[C@@H]2CC[C@@H](C)[C@@](O)(O2)C(=O)C(=O)N2CCCC[C@H]2C(=O)O[C@H]([C@H](C)C[C@@H]2CC[C@@H](OCCO)[C@H](OC)C2)CC(=O)[C@H](C)/C=C(\C)[C@@H](O)[C@@H](OC)C(=O)[C@H](C)C[C@H](C)/C=C/C=C/C=C/1C` [Everolimus, 40-O-(2-hydroxyethyl)-rapamycin]: in test [2], the “suppression of glucose consumption (2-NBDG uptake)” value is recorded as “greater suppression of glucose consumption in the DTC subset compared to drug naïve parent cells”.

As for `Oc1cccc(-c2nc(N3CCOCC3)c3oc4ncccc4c3n2)c1` [PI103, 3-(4-(4-Morpholinyl)pyrido[3′,2′:4,5]furo[3,2-d]pyrimidin-2-yl)phenol], the “suppression of glucose consumption (2-NBDG uptake)” value in test [2] is listed as “greater suppression of glucose consumption in the DTC subset compared to drug naïve parent cells”. Besides, in test [3] (DTC, co-incubated with dox, 48 h, PI103 5 μM, lonidamine 10 μM, KB-458 and KB-697 10 μM), the “response to dox in combination with inhibitor, DTC” value was “exquisitely responsive, overtly driven to cell death by dox in combination”. For the same molecule, the “response to dox in combination with inhibitor, parent cells” value in test [3] (drug naïve parent cells, co-incubated with dox, 48 h) is “little synergism or a reversion of synergy”.

In the case of `COc1cccc2c1C(=O)c1c(O)c3c(c(O)c1C2=O)C[C@@](O)(C(=O)CO)C[C@@H]3O[C@H]1C[C@H](N)[C@H](O)[C@H](C)O1` [doxorubicin, (1S,3S)-3-Glycoloyl-3,5,12-trihydroxy-10-methoxy-6,11-dioxo-1,2,3,4,6,11-hexahydro-1-tetracenyl 3-amino-2,3,6-trideoxy-α-L-lyxo-hexopyranoside], in test [3] (72 h, DTC vs parent), the “response of DTC to doxorubicin (trypan blue exclusion)” value is “DTC developed resistance”. Also, in test [3] (drug naïve parent cells co-treated with exogenous NADPH, GSH or ectopic G6PD expression), the “doxorubicin-mediated toxicity with PPP intermediates” value is listed as “reduction of doxorubicin-mediated toxicity”.

For “GM-CSF: recombinant cytokine purchased from Biolegend”, the “CD44 expression after exogenous cytokine” value in test [1] was “able to independently drive CD44 expression in a dose-dependent manner”. For the same molecule, the “2-NBDG uptake after exogenously-added cytokines” value in test [2] is listed as “didn't observe any alterations in 2-NBDG uptake”.

“IFN-γ: recombinant cytokine purchased from Biolegend”: in test [1], the “CD44 expression after exogenous cytokine” value is “able to independently drive CD44 expression in a dose-dependent manner”. The “2-NBDG uptake after exogenously-added cytokines” value in test [2] was “didn't observe any alterations in 2-NBDG uptake”.

In the case of “IL-6: recombinant cytokine purchased from Biolegend”, the “2-NBDG uptake after exogenously-added cytokines” value in test [2] is “didn't observe any alterations in 2-NBDG uptake”.

Take “IL-8: recombinant cytokine purchased from Biolegend”: the “2-NBDG uptake after exogenously-added cytokines” value in test [2] is “didn't observe any alterations in 2-NBDG uptake”.

B1: IL-23: recombinant cytokine purchased from Biolegend (protein, UniProt Q9NPF7 20-189; P29460 23-328, looked up)
Interleukin-23 subunit alpha: RAVPGGSSPAWTQCQQLSQKLCTLAWSAHPLVGHMDLREEGDEETTNDVPHIQCGDGCDPQGLRDNSQFCLQRIHQGLIFYEKLLGSDIFTGEPSLLPDSPVGQLHASLLGLSQLLQPEGHHWETQQIPSLSPSQPWQRLLLRFKILRSLQAFVAVAARVFAHGAATLSP
Interleukin-12 subunit beta: IWELKKDVYVVELDWYPDAPGEMVVLTCDTPEEDGITWTLDQSSEVLGSGKTLTIQVKEFGDAGQYTCHKGGEVLSHSLLLLHKKEDGIWSTDILKDQKEPKNKTFLRCEAKNYSGRFTCWWLTTISTDLTFSVKSSRGSSDPQGVTCGAATLSAERVRGDNKEYEYSVECQEDSACPAAEESLPIEVMVDAVHKLKYENYTSSFFIRDIIKPDPPKNLQLKPLKNSRQVEVSWEYPDTWSTPHSYFSLTFCVQVQGKSKREKKDRVFTDKTSATVICRKNASISVRAQDRYYSSSWSEWASVPCS
Take B1: the “CD44 expression after exogenous cytokine” value in test [1] is reported as “able to independently drive CD44 expression in a dose-dependent manner”. In addition, the “2-NBDG uptake after exogenously-added cytokines” value in test [2] is “didn't observe any alterations in 2-NBDG uptake”.
